Measurements from the supplement of paper PMC11208160.

Assay: recombinant UMI read abundance after kanamycin selection (control-corrected) (log10(CPM+1)); higher = more efficient recombination; extreme values may be limits of the assay; sequences stand for … in AGTGCAGAGAAAATCGGCCAGTTTTCTCTGCCTGCAGTCCGCATGCCGTGGGACCCCTTGGGTTCTAACCTGTTGCCTAGATTTATGCAGCGGACTGCCTTTCTCCCAAAGTGATAAACCGG…AGGTTGGTTTCACT; site = the 11-nt donor
In short: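 In a pooled Escherichia coli screen for the IS621 bridge recombinase, donor and donor-binding-loop pairs were each placed with a 12-nt UMI on a plasmid bearing a promoterless kanamycin gene. This library was co-electroporated with a target plasmid encoding a fixed target and T7-inducible recombinase, and cells were plated either on IPTG (0.07 mM) plus kanamycin or without selection, in two replicates each. Recombinant UMIs were PCR-amplified across the donor–target junction and sequenced, and counts were converted to CPM, averaged over replicates, scaled by control-derived factors and reported as log10(CPM+1).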
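Note: IS621 bridge recombinase in Escherichia coli cells against a fixed T5 target plasmid.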

Sequence | recombinant UMI read abundance (log10)
GATTTATCATGGACCGGTTTTCCCGGTAATCCGTATTTGGC (site GATTTATCTGC) | 1.38
GATTTGGCATGGACCGGTTTTCCCGGTAATCCGTATTTGTC (site GATTTGGCTGA) | 0
GCAACCTCATGGACCGGTTTTCCCGGTAATCCGTATTTGCC (site GCAACCTCTGG) | 0.0535
GCAACGCCATGGACCGGTTTTCCCGGTAATCCGTATTTGTA (site GCAACGCCTTA) | 0.399
GCAACGCCATGGACCGGTTTTCCCGGTAATCCGTATTTGTA (site GCCACGCCTTA) | 0.026
GCAACGCCATGGACCGGTTTTCCCGGTAATCCGTATTTGTA (site GCGACGCCTTA) | 0.015
GCAACGCCATGGACCGGTTTTCCCGGTAATCCGTATTTGTA (site GCTACGCCTTA) | 0.0211
GCAAGAGCATGGACCGGTTTTCCCGGTAATCCGTATTTGGC (site GCAAGAGCTGC) | 1.82
GCAAGATCATGGACCGGTTTTCCCGGTAATCCGTATTTGGA (site GCAAGATCTTC) | 1.69
GCAAGCTCATGGACCGGTTTTCCCGGTAATCCGTATTTGTG (site GCAAGCTCTCA) | 2.55
GCACGACCATGGACCGGTTTTCCCGGTAATCCGTATTTGCA (site GCACGACCTTG) | 0
GCACGTTCATGGACCGGTTTTCCCGGTAATCCGTATTTGGC (site GCACGTTCTGC) | 2.74
GCACTTGCATGGACCGGTTTTCCCGGTAATCCGTATTTGGC (site GCACTTGCTGC) | 2.1
GCAGAATCATGGACCGGTTTTCCCGGTAATCCGTATTTGCA (site ACAGTATCTTG) | 1.67
GCAGAATCATGGACCGGTTTTCCCGGTAATCCGTATTTGCA (site GCAGAATCTTG) | 2.13
GCAGACACATGGACCGGTTTTCCCGGTAATCCGTATTTGAT (site GCAGACACTAT) | 1.89
GCAGACCCATGGACCGGTTTTCCCGGTAATCCGTATTTGAT (site GCAGACCCTAT) | 0.819
GCAGACCCATGGACCGGTTTTCCCGGTAATCCGTATTTGGG (site GCAGACCCTCC) | 0.0178
GCAGAGACATGGACCGGTTTTCCCGGTAATCCGTATTTGCG (site ACAGAGACTCG) | 2.51
GCAGAGACATGGACCGGTTTTCCCGGTAATCCGTATTTGCG (site CCAGAGACTCG) | 2.58
GCAGAGACATGGACCGGTTTTCCCGGTAATCCGTATTTGCG (site GCAGAGACTCG) | 2.45
GCAGAGACATGGACCGGTTTTCCCGGTAATCCGTATTTGCG (site TCAGAGACTCG) | 2.34
GCAGCCCCATGGACCGGTTTTCCCGGTAATCCGTATTTGCT (site GCAGCCCCTAG) | 2.32

Sequence | recombinant UMI read abundance (log10)
GCAGCGGCATGGACCGGTTTTCCCGGTAATCCGTATTTGCC (site GCAGCGGCTGG) | 1.22
GCAGGAGCATGGACCGGTTTTCCCGGTAATCCGTATTTGGA (site GCAGGAGCTTC) | 1.41
GCAGGCACATGGACCGGTTTTCCCGGTAATCCGTATTTGCA (site GCAGGCACTTG) | 2.39
GCAGGCGCATGGACCGGTTTTCCCGGTAATCCGTATTTGCG (site GCAGGCGCTCG) | 2.03
GCAGGTGCATGGACCGGTTTTCCCGGTAATCCGTATTTGGC (site GCAGGTGCTGC) | 1.53
GCAGTATCATGGACCGGTTTTCCCGGTAATCCGTATTTGCT (site ACAGTATCTTG) | 0
GCAGTATCATGGACCGGTTTTCCCGGTAATCCGTATTTGCT (site GCAGTATCTAG) | 2.7
GCAGTGTCATGGACCGGTTTTCCCGGTAATCCGTATTTGAT (site GCAGTGTCTAT) | 2.82
GCAGTTACATGGACCGGTTTTCCCGGTAATCCGTATTTGGA (site GCAGTTACTTC) | 1.1
GCATAGACATGGACCGGTTTTCCCGGTAATCCGTATTTGCC (site GAATAGACTGG) | 0.0508
GCATAGACATGGACCGGTTTTCCCGGTAATCCGTATTTGCC (site GCATAGACTGG) | 1.74
GCATAGACATGGACCGGTTTTCCCGGTAATCCGTATTTGCC (site GGATAGACTGG) | 0
GCATAGACATGGACCGGTTTTCCCGGTAATCCGTATTTGCC (site GTATAGACTGG) | 0
GCATGGTCATGGACCGGTTTTCCCGGTAATCCGTATTTGGA (site GCATGGTCTTC) | 1.31
GCATGTGCATGGACCGGTTTTCCCGGTAATCCGTATTTGGT (site GCATGTGCTAC) | 1.79
GCATTGACATGGACCGGTTTTCCCGGTAATCCGTATTTGTT (site GCATTGACTAA) | 1.4
GCCAACTCATGGACCGGTTTTCCCGGTAATCCGTATTTGTT (site GCCAACTCTAA) | 1.65
GCCAAGCCATGGACCGGTTTTCCCGGTAATCCGTATTTGCC (site GCCAAGCCTGG) | 0
GCCAAGTCATGGACCGGTTTTCCCGGTAATCCGTATTTGGG (site GCCAAGTCTCC) | 0.538
GCCAATTCATGGACCGGTTTTCCCGGTAATCCGTATTTGCC (site ACCAATTCTGG) | 0
GCCAATTCATGGACCGGTTTTCCCGGTAATCCGTATTTGCC (site CCCAATTCTGG) | 0
GCCAATTCATGGACCGGTTTTCCCGGTAATCCGTATTTGCC (site GCCAATTCTGG) | 0.426
GCCAATTCATGGACCGGTTTTCCCGGTAATCCGTATTTGCC (site TCCAATTCTGG) | 0

Sequence | recombinant UMI read abundance (log10)
GCCACACCATGGACCGGTTTTCCCGGTAATCCGTATTTGTA (site GCCACACCTTA) | 0.0107
GCCACACCATGGACCGGTTTTCCCGGTAATCCGTATTTGTA (site GCCACCCCTTA) | 0.00331
GCCACACCATGGACCGGTTTTCCCGGTAATCCGTATTTGTA (site GCCACGCCTTA) | 0.00626
GCCACACCATGGACCGGTTTTCCCGGTAATCCGTATTTGTA (site GCCACTCCTTA) | 0.0198
GCCACGGCATGGACCGGTTTTCCCGGTAATCCGTATTTGTA (site GCCACGACTTA) | 1.24
GCCACGGCATGGACCGGTTTTCCCGGTAATCCGTATTTGTA (site GCCACGCCTTA) | 0.106
GCCACGGCATGGACCGGTTTTCCCGGTAATCCGTATTTGTA (site GCCACGGCTTA) | 1.62
GCCACGGCATGGACCGGTTTTCCCGGTAATCCGTATTTGTA (site GCCACGTCTTA) | 0.163
GCCAGCGCATGGACCGGTTTTCCCGGTAATCCGTATTTGCC (site GCCAGCGCTGG) | 1.98
GCCCCGTCATGGACCGGTTTTCCCGGTAATCCGTATTTGAT (site GCCCCGTCTAT) | 2
GCCCCTTCATGGACCGGTTTTCCCGGTAATCCGTATTTGGG (site GCCCCTTCTCC) | 0.712
GCCGACACATGGACCGGTTTTCCCGGTAATCCGTATTTGTA (site GCCGACACTTA) | 1.4
GCCGATTCATGGACCGGTTTTCCCGGTAATCCGTATTTGCT (site GCCGATTCTAG) | 1.88
GCCGCCCCATGGACCGGTTTTCCCGGTAATCCGTATTTGGC (site GCCGCCCCTGC) | 0
GCCGCTTCATGGACCGGTTTTCCCGGTAATCCGTATTTGGA (site GCCGCTTCTTC) | 1.23
GCCGGGCCATGGACCGGTTTTCCCGGTAATCCGTATTTGCA (site GCCGGGCCTTG) | 0
GCCGTACCATGGACCGGTTTTCCCGGTAATCCGTATTTGTT (site GCCGTACCTAA) | 0.0103
GCCTAGCCATGGACCGGTTTTCCCGGTAATCCGTATTTGTG (site GCCTAGCCTCA) | 0.155
GCCTATACATGGACCGGTTTTCCCGGTAATCCGTATTTGAC (site GCCTATACTGT) | 2.21
GCCTGCCCATGGACCGGTTTTCCCGGTAATCCGTATTTGAT (site GCATGCCCTAT) | 0.0137
GCCTGCCCATGGACCGGTTTTCCCGGTAATCCGTATTTGAT (site GCCTGCCCTAT) | 0.201
GCCTGCCCATGGACCGGTTTTCCCGGTAATCCGTATTTGAT (site GCGTGCCCTAT) | 0.0203
